Measured values as given in PMC12096669, “Structural isomerisation affects the antitubercular activity of adamantyl-isoxyl adducts” (Journal of Enzyme Inhibition and Medicinal Chemistry, 2025).
Values after ≈ are worked out from the molar mass of the structure shown. Like-named read-outs stand apart in the source and are kept apart here.

How the values were obtained:
[1] = test system: M. smegmatis mc^2155 mmpL3 knockout strain expressing MmpL3-Mtb-G253E; design: method as in PMID 22344175; settings: M. smegmatis mc^2155, MmpL3-Mtb-G253E in a mmpL3 knockout strain; cited from earlier work
Mtb mc^28256 pMV261 = test: microbe, parasite or virus in culture; assay type: cell-based; settings: Mycobacterium tuberculosis, read-out: Mtb MIC95
[2] = test system: Mtb mc^27092 pMV261-hadABC; test: microbe, parasite or virus in culture; assay type: cell-based; settings: Mycobacterium tuberculosis, read-out: Mtb MIC95
[3] = test system: Mtb mc^27092 pMV261- ethA; test: microbe, parasite or virus in culture; assay type: cell-based; settings: Mycobacterium tuberculosis, read-out: Mtb MIC95
[4] = test system: Mtb mc^27092 pMV261-mmpL3; test: microbe, parasite or virus in culture; assay type: cell-based, Mycobacterium tuberculosis; settings: for MIC: Mycobacterium tuberculosis, read-out: Mtb MIC95
[5] = test system: Mtb mc^27092 pMV261-desA3; test: microbe, parasite or virus in culture; assay type: cell-based; settings: Mycobacterium tuberculosis, read-out: Mtb MIC95
Mtb mc^28245 pMV261 = test: microbe, parasite or virus in culture; assay type: cell-based
Mtb mc^28250 pMV261 = test: microbe, parasite or virus in culture; assay type: cell-based
Mtb mc^28247 pMV261 = test: microbe, parasite or virus in culture; assay type: cell-based
[6] = test system: Mtb mc^27092 pMV261-pks13; test: microbe, parasite or virus in culture; assay type: cell-based; settings: Mycobacterium tuberculosis, read-out: Mtb MIC95
[7] = Mycobacterium tuberculosis; read-out: Mtb MIC95
[8] = Mycobacterium tuberculosis, read-out: Mtb MIC95

SMILES	increase in the resistance [1] [fold]	MIC (Mtb mc^28256 pMV261; mc^28256 pMV261, REMA) [µg/mL]	MIC ([2]; mc^27092 pMV261-hadABC, REMA) [µg/mL]	MIC ([3]; mc^27092 pMV261- ethA, REMA) [µg/mL]	MIC ([4]; mc^27092 pMV261-mmpL3, REMA) [µg/mL]	MIC ([5]; mc^27092 pMV261-desA3, REMA) [µg/mL]	MIC (Mtb mc^28245 pMV261; [7]) [µg/mL]	MIC (Mtb mc^28250 pMV261; [7]) [µg/mL]	MIC (Mtb mc^28247 pMV261; [7]) [µg/mL]	MIC ([6]; mc^27092 pMV261-pks13, REMA) [µg/mL]	increase in resistance on overexpression of MmpL3 [4] [fold]	MIC (Mtb mc^28256 pMV261) [µg/mL]	MIC [2] [µg/mL]	MIC [3] [µg/mL]	MIC [4] [µg/mL]	MIC [5] [µg/mL]	MIC (Mtb mc^28245 pMV261; [8]) [µg/mL]	MIC (Mtb mc^28250 pMV261; [8]) [µg/mL]	MIC (Mtb mc^28247 pMV261; [8]) [µg/mL]	MIC [6] [µg/mL]
O=C(Nc1ccc(F)c(F)c1F)NC1C2CC3CC(C2)CC1C3 (stereo not shown) [AU1235]	2																			
CC(C)CCOc1ccc(NC(=S)NC23CC4CC(CC(C4)C2)C3)cc1 [Ad-1-ISO, 1-((3s,5s,7s)-adamantan-1-yl)-3–(4-(isopentyloxy)phenyl)thiourea]		1.13 (≈ 3.03 µM)	1.09 (≈ 2.93 µM)	1.2 (≈ 3.22 µM)	1.16 (≈ 3.11 µM)	1.07 (≈ 2.87 µM)	1.11 (≈ 2.98 µM)	1.12 (≈ 3.01 µM)	1.08 (≈ 2.9 µM)	1.11 (≈ 2.98 µM)										
CC(C)CCOc1ccc(NC(=S)NC2C3CC4CC(C3)CC2C4)cc1 (stereo not shown) [Ad-2-ISO, 1-((1r,3r,5r,7r)-adamantan-2-yl)-3–(4-(isopentyloxy)phenyl)thiourea]		2.9 (≈ 7.78 µM)	4.34 (≈ 11.6 µM)	2.63 (≈ 7.06 µM)	4.2 (≈ 11.3 µM)	2.93 (≈ 7.86 µM)	3.55 (≈ 9.53 µM)	3.1 (≈ 8.32 µM)	2.5 (≈ 6.71 µM)	3.37 (≈ 9.05 µM)	~2									
CC[C@@H](CO)NCCN[C@@H](CC)CO [EMB, Ethambutol]		1.88 (≈ 9.2 µM)	2.54 (≈ 12.4 µM)	2.09 (≈ 10.2 µM)	2.02 (≈ 9.89 µM)	2.95 (≈ 14.4 µM)	1.82 (≈ 8.91 µM)	1.89 (≈ 9.25 µM)	1.97 (≈ 9.64 µM)	2 (≈ 9.79 µM)										
CCc1cc(C(N)=S)ccn1 [ETH, ethionamide]												1.08 (≈ 6.5 µM)	2.02 (≈ 12.2 µM)	0.65 (≈ 3.91 µM)	0.99 (≈ 5.95 µM)	1.02 (≈ 6.14 µM)	0.98 (≈ 5.89 µM)	1.02 (≈ 6.14 µM)	0.98 (≈ 5.89 µM)	1.01 (≈ 6.08 µM)
NNC(=O)c1ccncc1 [INH, isoniazid]			0.04 (≈ 0.292 µM)	0.04 (≈ 0.292 µM)	0.04 (≈ 0.292 µM)	0.04 (≈ 0.292 µM)			0.04 (≈ 0.292 µM)	0.04 (≈ 0.292 µM)										
CC(C)CCOc1ccc(NC(=S)Nc2ccc(OCCC(C)C)cc2)cc1 [ISO, 4,4′-diisoamyloxydiphenylthiourea]		0.19 (≈ 0.474 µM)	0.71 (≈ 1.77 µM)	0.09 (≈ 0.225 µM)	0.21 (≈ 0.524 µM)	0.26 (≈ 0.649 µM)	0.18 (≈ 0.449 µM)	0.2 (≈ 0.499 µM)	0.34 (≈ 0.849 µM)	0.34 (≈ 0.849 µM)										
CC(=O)NC[C@H]1CN(c2ccc(N3CCOCC3)c(F)c2)C(=O)O1 [LZD, linezolid]		0.66 (≈ 1.96 µM)	0.72 (≈ 2.13 µM)		0.86 (≈ 2.55 µM)		0.9 (≈ 2.67 µM)	0.77 (≈ 2.28 µM)	0.88 (≈ 2.61 µM)	0.93 (≈ 2.76 µM)										
CO[C@H]1/C=C/O[C@@]2(C)Oc3c(C)c(O)c4c(O)c(c(/C=N/N5CCN(C)CC5)c(O)c4c3C2=O)NC(=O)/C(C)=C\C=C\[C@H](C)[C@H](O)[C@@H](C)[C@@H](O)[C@@H](C)[C@H](OC(C)=O)[C@@H]1C [RIF, rifampicin]			0.06 (≈ 0.0729 µM)	0.06 (≈ 0.0729 µM)	0.06 (≈ 0.0729 µM)	0.06 (≈ 0.0729 µM)	0.05 (≈ 0.0608 µM)			0.06 (≈ 0.0729 µM)										
CC(C)=CCC/C(C)=C/CNCCNC1C2CC3CC(C2)CC1C3 (stereo not shown) [SQ109, N-Adamantan-2-yl-N’-((E)-3,7-dimethylocta-2,6-dienyl)ethane-1,2-diamine]		0.27 (≈ 0.817 µM)	0.31 (≈ 0.938 µM)		0.74 (≈ 2.24 µM)		0.31 (≈ 0.938 µM)	0.3 (≈ 0.908 µM)	0.3 (≈ 0.908 µM)	0.31 (≈ 0.938 µM)										
